From PubChem BioAssay AID179 (DTP/NCI, 2004)
Calls of active or inactive are those of the source.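 How the source made its calls: active means compounds giving half or more protection of infected cells from virus-caused growth loss, again on retest; inactive means the rest.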

Tested on: CEM cells HIV-1 protection, formazan growth assay
Experiment: NCI AIDS Antiviral Assay
Settings: for IC50: measured here: growth of uninfected CEM cells
How it was run: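 Human CEM cells, uninfected and HIV-1-infected, received five drug concentrations, and growth was read by soluble formazan assay. Compounds giving at least 50% protection were retested; reproducible 100% protection defined confirmed active.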

With `CC(=O)N(C(C)=O)c1nc2c(c(=O)n(C)c(=O)n2C)n1C` the EC50 was over 200 µM and the IC50 was over 200 µM.
For `O=C1c2ccccc2-c2ccc3c4ccc5c6c(ccc(c7ccc1c2c73)c64)-c1ccccc1C5=O`, the EC50 was over 200 µM and the IC50 was over 200 µM.
With `c1cc(C2N3CCCN2CC3)ccn1` (configuration not stated) the outcome was “inactive”.
For `CC(=O)[C@]1(O)Cc2c(O)c3c(c(O)c2[C@@H](OC2CC(N)C(O)C(C)O2)C1)C(=O)c1c(OCc2ccccc2)cccc1C3=O` (some centres not stated), the outcome was “inactive”.
`C=CCOC(=O)Cn1cc(C)c(=O)[nH]c1=O` was tested, and the EC50 was over 200 µM and the IC50 was over 200 µM.
For `C[C@]12CC=CC(=O)[C@@]1(C)CCC(=O)C2`, the outcome was “inactive”.
With `CCN(CC)C1=Nc2ccccc2N(c2ccccc2)C(=S)C1` the EC50 was over 200 µM and the IC50 was 85.1 µM.
In the case of `C[S+](C)CCOC(=O)C(=[N+]=[N-])c1ccc([N+](=O)[O-])cc1`, the outcome is reported as “inactive”.
For `Nc1cccc2c1-c1c(cccc1[N+](=O)[O-])C2=O`, the outcome was “inactive”.
`OC1(C23CC4CC(CC(C4)C2)C3)CSCC1(O)C12CC3CC(CC(C3)C1)C2` (configuration not stated) showed an EC50 of over 7.08 µM and an IC50 of over 7.08 µM.
In the case of `Cn1c(=O)n2n(c1=O)[C@@H](c1ccccc1)[C@H]2c1ccccc1`, the EC50 is reported as over 200 µM and the IC50 is reported as 91.2 µM.
In the case of `C=C1C2CCC3C(CCC4C5(C)CCCC43C3OCCN3C5)(C2)C1OC(C)=O` (configuration not stated), the outcome is reported as “inactive”.
Compound `S=c1cn[nH]c2ccc(S)cc12` has an EC50 of over 182 µM and an IC50 of 102 µM.
`CCCC(Cc1ccccc1)N1CCCC1` (configuration not stated) showed an EC50 of over 200 µM and an IC50 of over 200 µM.
`O=C1/C(=C\c2ccccc2)CN(C(=O)CCN2CCCCC2)C/C1=C/c1ccccc1` gave an EC50 of over 151 µM and an IC50 of 0.794 µM.
In the case of `C=C(C)CCOC(c1ccccc1)(c1ccccc1)c1ccccc1`, the EC50 is reported as over 21.9 µM and the IC50 is reported as over 21.9 µM.
Work on `CCCCCCCCCCCCS(=O)(=O)O.[Pb]` yielded an EC50 of over 200 µM and an IC50 of over 200 µM.
In the case of `Cc1cc(=O)oc2c(C)c3oc(CBr)cc3cc12`, the EC50 is reported as over 200 µM and the IC50 is reported as 0.447 µM.
`CC1(C)OC2C(O)CN3CCS[C@H]3C2O1` (some centres not stated) showed an EC50 of over 200 µM and an IC50 of over 200 µM.
`CC(=O)NNc1nc(C)c(C(=O)NNC(=O)C(=O)Nc2c(C)cccc2C)s1` gave an EC50 of over 89.1 µM and an IC50 of 28.2 µM.
Compound `NNC(=S)N1CCN(C(=S)NN)CC1` has an EC50 of over 200 µM and an IC50 of 15.1 µM.
`COC(=O)c1ccc(C(=O)OC)c2nc3cc(Cl)ccc3nc12` showed an EC50 of over 30.2 µM and an IC50 of over 30.2 µM.
With `CCCOc1csc([C@H]2CCC3[C@@H]4CC=C5C[C@@H](OC(C)=O)CC[C@]5(C)C4CC[C@@]32C)n1` (some centres not stated) the EC50 was over 55 µM and the IC50 was over 55 µM.
`O=c1sc2c(s1)SSSSS2` was tested, and the EC50 was over 50.1 µM and the IC50 was 15.8 µM.
Compound `COc1cccc(C2c3cc4c(cc3OC(C)(O)C2C)OCO4)c1O` (configuration not stated) has an EC50 of over 200 µM and an IC50 of 0.646 µM.
For `CCOC(=O)[C@@]12C(=O)[C@@H](C)CC[C@@H]1[C@@H](C)C[C@H]2C=C(C)C`, the EC50 was over 200 µM and the IC50 was 110 µM.
In the case of `C1=Nc2ccc(cc2)N=Cc2ccccc2OCc2cccc(n2)COc2ccccc21`, the EC50 is reported as over 200 µM and the IC50 is reported as over 200 µM.
`COc1ccc(-c2c(C#N)c(S)n(NS(=O)(=O)c3ccccc3)c(=O)c2C#N)cc1` was tested, and the EC50 was over 200 µM and the IC50 was 12.6 µM.
`COC(=O)/C(=N\Nc1nc(=S)[nH]n1N)C(C#N)c1ccccc1` (configuration not stated) was tested, and the EC50 was over 178 µM and the IC50 was over 178 µM.
Compound `CCOc1ccc(NCC(=O)N2CC(=O)Nc3cc(C)c(C)cc32)cc1` has an EC50 of over 20.4 µM and an IC50 of over 20.4 µM.
In the case of `COc1cc(CNc2cnc3cc(N)ccc3n2)cc(OC)c1OC`, the EC50 is reported as over 200 µM and the IC50 is reported as 6.46 µM.
For `Cc1cn(C2CCC(CO)(CF)O2)c(=O)[nH]c1=O` (configuration not stated), the EC50 was over 200 µM and the IC50 was over 200 µM.
In the case of `O=S(=O)(SCc1ccccc1)C(c1ccccc1)c1ccccc1`, the EC50 is reported as over 105 µM and the IC50 is reported as 6.31 µM.
With `COC(=O)C1=C(C(=O)OC)C2OC1C1C2C2(C)C(C)=C(C)C1(C)S2=O` (configuration not stated) the EC50 was over 200 µM and the IC50 was 2.82 µM.
With `O=S(=O)(O)c1cc(N=Nc2cc(S(=O)(=O)O)c3cccnc3c2O)ccc1/C=C/c1ccc(N=Nc2cc(S(=O)(=O)O)c3cccnc3c2O)cc1S(=O)(=O)O.[Cu+2].[Na+]` the EC50 was over 10.7 µM and the IC50 was 1.2 µM.
With `O=[N+]([O-])/C=C/c1ccc(O)cc1` the outcome was “inactive”.
With `OCC1OC2NC(=S)OC2C1O` (configuration not stated) the EC50 was over 200 µM and the IC50 was over 200 µM.
